# Data: EP0908457B1, “3-(1,2-benzisothiazol- and isoxazol-5-Y1)-2,4(1H,3H)-pyrimidinedione or thione and 3-(1,2-benzisothiazol- and isoxazol-5-y1)-4(3H)-pyrimidinone or thione herbicidal agents” (BASF AKTIENGESELLSCHAFT, priority 1997, dated 1999)
# Tests used:
# Cyperus iria = assay: Preemergence weed control under flooded paddy conditions, CYPIR (Rice Flatsedge); assay type: in vivo; settings: flooded paddy, rated three to four weeks after treatment; as to herbicidal effect rating, CYPIR: meaning of each grade not given here
# [1] = test system: Echinochloa oryzoides (Ard.) Fritsch.; assay: Preemergence weed control under flooded paddy conditions, ECHORC (Watergrass (Calif.)); assay type: in vivo; settings: flooded paddy, rated three to four weeks after treatment; as to herbicidal effect rating, ECHORC: meaning of each grade not given here
# Sagittaria pygmaea, L. = assay: Preemergence weed control under flooded paddy conditions, SAGPY (Arrowhead (Pygmaea)); assay type: in vivo; settings: flooded paddy, rated three to four weeks after treatment; as to herbicidal effect rating, SAGPY: meaning of each grade not given here
# [2] = test system: Monochoria vaginalis, Presl.; assay: Preemergence weed control under flooded paddy conditions, MOOVA (Monochoria); assay type: in vivo; settings: flooded paddy, rated three to four weeks after treatment; as to herbicidal effect rating, MOOVA: meaning of each grade not given here
# [3] = test system: Oryza sativa, (L.) Tebonnet; assay: Rice tolerance to post-transplant applications under flooded paddy conditions (Example 187), ORYSAT (Rice, Tebonnet); settings: rated three to four weeks after treatment; as to herbicidal effect rating ORYSAT: meaning of each grade not given here
# [4] = test system: Cyperus serotinus, Rottb.; assay: Preemergence weed control under flooded paddy conditions, CYPSE (Flatsedge); assay type: in vivo; settings: rated three to four weeks after treatment; as to herbicidal effect rating, CYPSE: meaning of each grade not given here
# [5] = Rate 0.0320 kg/ha, preemergence
# [6] = Rate 0.0620 kg/ha, preemergence
# [7] = Rate 0.1250 kg/ha, preemergence
# [8] = Rate 0.2500 kg/ha, preemergence
# [9] = Rate 0.0320 kg/ha, preemergence weeds
# [10] = Rate 0.0620 kg/ha, preemergence weeds
# [11] = Rate 0.1250 kg/ha, preemergence weeds
# [12] = Rate 0.2500 kg/ha, preemergence weeds
smiles,measurement,setting,value
"CN(C(=O)c1nsc2ccc(-n3c(=O)cc(C(F)(F)F)n(C)c3=O)cc12)S(=O)(=O)Cc1ccccc1 [Example 494, 1,2-Benzisothiazole-3-carboxamide, N-(benzylsulfonyl)-5-[3,6-dihydro-3-methyl-2,6-dioxo-4-(trifluoromethyl)-1(2H)-pyrimidinyl]-N-methyl-]",CYPIR herbicidal rating,"Cyperus iria; 0.0320 kg/ha, preemergence",3.0
same,CYPIR herbicidal rating,"Cyperus iria; 0.0620 kg/ha, preemergence",4.0
same,CYPIR herbicidal rating,"Cyperus iria; 0.1250 kg/ha, preemergence",5.0
same,CYPIR herbicidal rating,"Cyperus iria; 0.2500 kg/ha, preemergence",5.0
same,ECHORC herbicidal rating,"[1]; 0.0320 kg/ha, preemergence",0.0
same,ECHORC herbicidal rating,"[1]; 0.0620 kg/ha, preemergence",2.0
same,ECHORC herbicidal rating,"[1]; 0.1250 kg/ha, preemergence",3.0
same,ECHORC herbicidal rating,"[1]; 0.2500 kg/ha, preemergence",3.0
same,SAGPY herbicidal rating,"Sagittaria pygmaea, L.; 0.0320 kg/ha, preemergence",0.0
same,SAGPY herbicidal rating,"Sagittaria pygmaea, L.; 0.0620 kg/ha, preemergence",0.0
same,SAGPY herbicidal rating,"Sagittaria pygmaea, L.; 0.1250 kg/ha, preemergence",0.0
same,SAGPY herbicidal rating,"Sagittaria pygmaea, L.; 0.2500 kg/ha, preemergence",3.0
same,MOOVA herbicidal rating,"[2]; 0.0320 kg/ha, preemergence",4.0
same,MOOVA herbicidal rating,"[2]; 0.0620 kg/ha, preemergence",4.0
same,MOOVA herbicidal rating,"[2]; 0.1250 kg/ha, preemergence",5.0
same,MOOVA herbicidal rating,"[2]; 0.2500 kg/ha, preemergence",6.0
same,ORYSAT herbicidal rating (rice tolerance),[3]; 0.0320 kg/ha,0.0
same,ORYSAT herbicidal rating (rice tolerance),[3]; 0.0620 kg/ha,0.0
same,ORYSAT herbicidal rating (rice tolerance),[3]; 0.1250 kg/ha,0.0
same,ORYSAT herbicidal rating (rice tolerance),[3]; 0.2500 kg/ha,0.0
same,CYPSE herbicidal rating,"[4]; 0.1250 kg/ha, preemergence",0.0
same,CYPSE herbicidal rating,"[4]; 0.2500 kg/ha, preemergence",3.0
"Cn1c(C(F)(F)F)cc(=O)n(-c2ccc3snc(C(=O)NS(=O)(=O)c4ccc(Cl)cc4)c3c2)c1=O [Example 356, 1,2-Benzisothiazole-3-carboxamide, N-[(p-chlorophenyl)sulfonyl]-5-[3,6-dihydro-3-methyl-2,6-dioxo-4-(trifluoromethyl)-1(2H)-pyrimidinyl]-]","herbicidal effect rating, CYPIR",Cyperus iria; [5],6.5
same,"herbicidal effect rating, CYPIR",Cyperus iria; [6],9.0
same,"herbicidal effect rating, CYPIR",Cyperus iria; [7],9.0
same,"herbicidal effect rating, CYPIR",Cyperus iria; [8],9.0
same,"herbicidal effect rating, ECHORC",[1]; [5],3.5
same,"herbicidal effect rating, ECHORC",[1]; [6],5.0
same,"herbicidal effect rating, ECHORC",[1]; [7],6.5
same,"herbicidal effect rating, ECHORC",[1]; [8],9.0
same,"herbicidal effect rating, SAGPY","Sagittaria pygmaea, L.; [5]",4.5
same,"herbicidal effect rating, SAGPY","Sagittaria pygmaea, L.; [6]",4.5
same,"herbicidal effect rating, SAGPY","Sagittaria pygmaea, L.; [7]",5.5
same,"herbicidal effect rating, SAGPY","Sagittaria pygmaea, L.; [8]",8.0
same,"herbicidal effect rating, MOOVA",[2]; [5],7.5
same,"herbicidal effect rating, MOOVA",[2]; [6],9.0
same,"herbicidal effect rating, MOOVA",[2]; [7],9.0
same,"herbicidal effect rating, MOOVA",[2]; [8],9.0
same,herbicidal effect rating ORYSAT,[3]; Rate 0.0320 kg/ha,0.5
same,herbicidal effect rating ORYSAT,[3]; Rate 0.0620 kg/ha,2.5
same,herbicidal effect rating ORYSAT,[3]; Rate 0.1250 kg/ha,4.5
same,herbicidal effect rating ORYSAT,[3]; Rate 0.2500 kg/ha,2.0
same,"herbicidal effect rating, CYPSE",[4]; [5],0.0
same,"herbicidal effect rating, CYPSE",[4]; [6],0.0
same,"herbicidal effect rating, CYPSE",[4]; [7],5.0
same,"herbicidal effect rating, CYPSE",[4]; [8],6.5
"CCCCCCCCCCCCS(=O)(=O)NC(=O)c1nsc2ccc(-n3c(=O)cc(C(F)(F)F)n(C)c3=O)cc12 [Example 358, 1,2-Benzisothiazole-3-carboxamide, 5-[3,6-dihydro-3-methyl-2,6-dioxo-4-(trifluoromethyl)-1(2H)-pyrimidinyl]-N-(dodecylsulfonyl)-]","herbicidal effect rating, CYPIR",Cyperus iria; [5],0.0
same,"herbicidal effect rating, CYPIR",Cyperus iria; [6],0.0
same,"herbicidal effect rating, CYPIR",Cyperus iria; [7],0.0
same,"herbicidal effect rating, CYPIR",Cyperus iria; [8],7.0
same,"herbicidal effect rating, ECHORC",[1]; [5],4.0
same,"herbicidal effect rating, ECHORC",[1]; [6],5.0
same,"herbicidal effect rating, ECHORC",[1]; [7],5.0
same,"herbicidal effect rating, ECHORC",[1]; [8],5.0
same,"herbicidal effect rating, SAGPY","Sagittaria pygmaea, L.; [5]",5.0
same,"herbicidal effect rating, SAGPY","Sagittaria pygmaea, L.; [6]",5.0
same,"herbicidal effect rating, SAGPY","Sagittaria pygmaea, L.; [7]",6.0
same,"herbicidal effect rating, SAGPY","Sagittaria pygmaea, L.; [8]",6.0
same,"herbicidal effect rating, MOOVA",[2]; [5],9.0
same,"herbicidal effect rating, MOOVA",[2]; [6],9.0
same,"herbicidal effect rating, MOOVA",[2]; [7],9.0
same,"herbicidal effect rating, MOOVA",[2]; [8],9.0
same,herbicidal effect rating ORYSAT,[3]; Rate 0.0320 kg/ha,2.0
same,herbicidal effect rating ORYSAT,[3]; Rate 0.0620 kg/ha,3.0
same,herbicidal effect rating ORYSAT,[3]; Rate 0.1250 kg/ha,3.0
same,herbicidal effect rating ORYSAT,[3]; Rate 0.2500 kg/ha,3.0
same,"herbicidal effect rating, CYPSE",[4]; [5],0.0
same,"herbicidal effect rating, CYPSE",[4]; [6],0.0
same,"herbicidal effect rating, CYPSE",[4]; [7],0.0
same,"herbicidal effect rating, CYPSE",[4]; [8],0.0
"Cn1c(C(F)(F)F)cc(=O)n(-c2ccc3snc(CN=C=S)c3c2)c1=O [Example 311, Isothiocyanic acid, {5-[3,6-dihydro-3-methyl-2,6-dioxo-4-(trifluoromethyl)-1(2H)-pyrimidinyl]-1,2-benzisothiazol-3-yl}methyl ester]","herbicidal effect rating, CYPIR",Cyperus iria; [9],0.0
same,"herbicidal effect rating, CYPIR",Cyperus iria; [10],9.0
same,"herbicidal effect rating, CYPIR",Cyperus iria; [11],9.0
same,"herbicidal effect rating, CYPIR",Cyperus iria; [12],9.0
same,"herbicidal effect rating, ECHORC",[1]; [9],0.0
same,"herbicidal effect rating, ECHORC",[1]; [10],0.0
same,"herbicidal effect rating, ECHORC",[1]; [11],0.0
same,"herbicidal effect rating, ECHORC",[1]; [12],0.0
same,"herbicidal effect rating, SAGPY","Sagittaria pygmaea, L.; [9]",0.0
same,"herbicidal effect rating, SAGPY","Sagittaria pygmaea, L.; [10]",0.0
same,"herbicidal effect rating, SAGPY","Sagittaria pygmaea, L.; [11]",0.0
same,"herbicidal effect rating, SAGPY","Sagittaria pygmaea, L.; [12]",0.0
same,"herbicidal effect rating, MOOVA",[2]; [9],0.0
same,"herbicidal effect rating, MOOVA",[2]; [10],9.0
same,"herbicidal effect rating, MOOVA",[2]; [11],9.0
same,"herbicidal effect rating, MOOVA",[2]; [12],9.0
same,herbicidal effect rating ORYSAT,[3]; Rate 0.0320 kg/ha,0.0
same,herbicidal effect rating ORYSAT,[3]; Rate 0.0620 kg/ha,0.0
same,herbicidal effect rating ORYSAT,[3]; Rate 0.1250 kg/ha,2.0
same,herbicidal effect rating ORYSAT,[3]; Rate 0.2500 kg/ha,2.0
same,"herbicidal effect rating, CYPSE",[4]; [9],0.0
same,"herbicidal effect rating, CYPSE",[4]; [10],0.0
same,"herbicidal effect rating, CYPSE",[4]; [11],0.0
same,"herbicidal effect rating, CYPSE",[4]; [12],0.0
"COc1cc(C)c(C)c(C)c1-c1nsc2ccc(-n3c(=O)cc(C(F)(F)F)n(C)c3=O)cc12 [Example 34, 3-[3-(6-Methoxy-2,3,4-trimethylphenyl)-1,2-benzisothiazol-5-yl]-1-methyl-6-(trifluoromethyl)-2,4(1H,3H)-pyrimidinedione]","herbicidal effect rating, CYPIR","Cyperus iria; 0.0313 kg/ha, preemergence",0.0
same,"herbicidal effect rating, CYPIR","Cyperus iria; 0.0625 kg/ha, preemergence",0.0
same,"herbicidal effect rating, CYPIR","Cyperus iria; 0.1250 kg/ha, preemergence",0.0
same,"herbicidal effect rating, CYPIR","Cyperus iria; 0.2500 kg/ha, preemergence",0.0
same,"herbicidal effect rating, ECHORC","[1]; 0.0313 kg/ha, preemergence",2.0
same,"herbicidal effect rating, ECHORC","[1]; 0.0625 kg/ha, preemergence",2.5
same,"herbicidal effect rating, ECHORC","[1]; 0.1250 kg/ha, preemergence",3.5
same,"herbicidal effect rating, ECHORC","[1]; 0.2500 kg/ha, preemergence",4.5
same,"herbicidal effect rating, SAGPY","Sagittaria pygmaea, L.; 0.0313 kg/ha, preemergence",0.0
same,"herbicidal effect rating, SAGPY","Sagittaria pygmaea, L.; 0.0625 kg/ha, preemergence",0.0
same,"herbicidal effect rating, SAGPY","Sagittaria pygmaea, L.; 0.1250 kg/ha, preemergence",0.0
same,"herbicidal effect rating, SAGPY","Sagittaria pygmaea, L.; 0.2500 kg/ha, preemergence",0.0
same,"herbicidal effect rating, MOOVA","[2]; 0.0313 kg/ha, preemergence",0.0
same,"herbicidal effect rating, MOOVA","[2]; 0.0625 kg/ha, preemergence",0.0
same,"herbicidal effect rating, MOOVA","[2]; 0.1250 kg/ha, preemergence",0.0
same,"herbicidal effect rating, MOOVA","[2]; 0.2500 kg/ha, preemergence",0.0
same,"herbicidal effect rating, ORYSAT (rice tolerance)",[3]; 0.0313 kg/ha,0.0
same,"herbicidal effect rating, ORYSAT (rice tolerance)",[3]; 0.0625 kg/ha,0.0
same,"herbicidal effect rating, ORYSAT (rice tolerance)",[3]; 0.1250 kg/ha,0.0
same,"herbicidal effect rating, ORYSAT (rice tolerance)",[3]; 0.2500 kg/ha,0.0
same,"herbicidal effect rating, CYPSE","[4]; 0.0313 kg/ha, preemergence",0.0
same,"herbicidal effect rating, CYPSE","[4]; 0.0625 kg/ha, preemergence",0.0
same,"herbicidal effect rating, CYPSE","[4]; 0.1250 kg/ha, preemergence",0.0
same,"herbicidal effect rating, CYPSE","[4]; 0.2500 kg/ha, preemergence",0.0
"Cn1c(C(F)(F)F)cc(=O)n(-c2ccc3snc(C(C)(C)C(=O)OCc4ccccn4)c3c2)c1=O [Example 510, 1,2-Benzisothiazole-3-acetic acid, 5-[3,6-dihydro-3-methyl-2,6-dioxo-4-(trifluoromethyl)-1(2H)-pyrimidinyl]-alpha,alpha-dimethyl-, 2-pyridylmethyl ester]",CYPIR herbicidal rating,"Cyperus iria; 0.0320 kg/ha, preemergence",0.0
same,CYPIR herbicidal rating,"Cyperus iria; 0.0620 kg/ha, preemergence",3.0
same,CYPIR herbicidal rating,"Cyperus iria; 0.1250 kg/ha, preemergence",7.0
same,CYPIR herbicidal rating,"Cyperus iria; 0.2500 kg/ha, preemergence",8.0
same,ECHORC herbicidal rating,"[1]; 0.0320 kg/ha, preemergence",9.0
same,ECHORC herbicidal rating,"[1]; 0.0620 kg/ha, preemergence",9.0
same,ECHORC herbicidal rating,"[1]; 0.1250 kg/ha, preemergence",9.0
same,ECHORC herbicidal rating,"[1]; 0.2500 kg/ha, preemergence",9.0
same,SAGPY herbicidal rating,"Sagittaria pygmaea, L.; 0.0320 kg/ha, preemergence",3.0
same,SAGPY herbicidal rating,"Sagittaria pygmaea, L.; 0.0620 kg/ha, preemergence",4.0
same,SAGPY herbicidal rating,"Sagittaria pygmaea, L.; 0.1250 kg/ha, preemergence",5.0
same,SAGPY herbicidal rating,"Sagittaria pygmaea, L.; 0.2500 kg/ha, preemergence",6.0
same,MOOVA herbicidal rating,"[2]; 0.0320 kg/ha, preemergence",6.0
same,MOOVA herbicidal rating,"[2]; 0.0620 kg/ha, preemergence",7.0
same,MOOVA herbicidal rating,"[2]; 0.1250 kg/ha, preemergence",9.0
same,MOOVA herbicidal rating,"[2]; 0.2500 kg/ha, preemergence",9.0
same,ORYSAT herbicidal rating (rice tolerance),[3]; 0.0320 kg/ha,0.0
same,ORYSAT herbicidal rating (rice tolerance),[3]; 0.0620 kg/ha,2.0
same,ORYSAT herbicidal rating (rice tolerance),[3]; 0.1250 kg/ha,4.0
same,ORYSAT herbicidal rating (rice tolerance),[3]; 0.2500 kg/ha,8.0
same,CYPSE herbicidal rating,"[4]; 0.0320 kg/ha, preemergence",0.0
same,CYPSE herbicidal rating,"[4]; 0.0620 kg/ha, preemergence",0.0
same,CYPSE herbicidal rating,"[4]; 0.1250 kg/ha, preemergence",3.0
same,CYPSE herbicidal rating,"[4]; 0.2500 kg/ha, preemergence",5.0
